Test results taken from patent US5608095A, “Alkyl-4-silyl-phenols and esters thereof as antiatherosclerotic agents” (Hoechst Marion Roussel, Inc., priority 1996, dated 1997).
Like-named read-outs stand apart in the source and are kept apart here.

Tests used:
[1] = tested on: VCAM-1; test: Cell surface ELISA for VCAM-1 in human umbilical vein endothelial cells (HUVEC), TNF-alpha induced; type: cell-based; details: 50 μM, average of three runs
Procedure: (§1) Cell Surface ELISA for VCAM-1/ICAM-1
(§2) Proliferating human umbilical vein endothelial cells (HUVEC) or human aortic smooth muscle cells (HASMC) from Clonetics (San Diego, Calif.) were plated onto 96-well plates in 100 μL medium per well at 20,000 cells per cm^2. The cultures were maintained in growth medium (EGM or SMGM2, Clonetics, San Diego, Calif.) for two days prior to addition of cytokines or drugs. Cytokines plus or minus compounds were added for 20 to 24 hours prior to analysis for adhesion molecule levels. Tumor necrosis factor (Genzyme, Cambridge, Mass.) was added to cultures at 500-1000 units/mL. Interleukin-4 (GIBCO-BRL, Gaithersburg, Md.) was added to cultures at 100-200 pg/mL. (Additions were made by transferring 100 [μL of cytokines plus compounds serially diluted on a separate 96-well plate into the plates containing cells. The medium on the cultures was not exchanged prior to addition of effectors). The culture medium was removed, and the monolayers were washed twice with Hanks buffered saline solution (HBSS) at room temperature. The primary antibody (anti-human VCAM-1 from Upstate Biotechnology, Inc., Lake Placid, N.Y. or anti-human ICAM-1 from Immunotech, Inc., Westbrook, Me.) was added to each well (1 μg/mL in HBSS plus 5% newborn calf serum, GIBCO-BRL, Gaithersburg, Md.) and incubated at 37° C. for 1 hr. The wells were washed twice with HBSS, then 100 μL of a 1/1000 dilution of goat anti-mouse IgG conjugated to horse radish peroxidase (BioRad, Hercules, Calif.) in HBSS plus 5% newborn calf serum was added to each well and incubated for 1 hr at 37° C. The wells were washed three times with HBSS, then 100 μL of TMB substrate (BioRad, Hercules, Calif.) was added to each well. The reaction was stopped after blue color developed by addition of 50 μL of 1N H2 SO4. Absorbance is measured at 450 nm with a plate reader. IC50 values were determined from curves of absorbance values obtained from serial dilutions of compounds (dissolved in dimethyl sulfoxide).
(§3) The IC50 value is defined as the drug concentration that inhibits the cytokine-induced adhesion molecule expression by 50%. Maximal values for adhesion molecule expression in cytokine-induced cultures was […] the basal level of adhesion molecule expression (minus cytokines) in the cultures to determine the level of induction. […] Each drug concentration was tested in quadruplicate wells. Single point tests of compounds at 50 μM were assayed as described for IC50 determinations, except that the data represent the level of inhibition without correction for basal expression. (Basal adhesion molecule expression was 10-20% of the total induced expression). Table 1 summarizes the ability of various compounds of this invention to inhibit VCAM-1 using human aortic smooth muscle cells (HASMC). In these experiments, the cells were coincubated with interleukin-4 and the compounds listed about 20 hr before assaying cell surface VCAM-1 levels. Each column represents a separate experiment.
In these experiments, the cells were coincubated with tumor necrosis factor-alpha along with the indicated compounds about 20 to 24 hr before assaying cell surface adhesion molecule expression.

[2] = tested on: VCAM-1; test: Cell surface ELISA for VCAM-1 in human aortic smooth muscle cells (HASMC), interleukin-4 induced; type: cell-based; details: 50 μm; for VCAM-1 (Avg.) % inh.: average of HSMC-1 to HSMC-3; for HSMC-1 % inh. of VCAM-1: experiment HSMC-1, interleukin-4, about 20 hr; for HSMC-2 % inh. of VCAM-1: experiment HSMC-2, interleukin-4, about 20 hr; for HSMC-3 % inh. of VCAM-1: experiment HSMC-3, interleukin-4, about 20 hr
Procedure: as §1, §2, §3

[3] = tested on: oxidation of serum lipids; test: TBARS assay, rat serum; type: in vivo, male Sprague-Dawley rats; details: po, 96 h, read-out: TBARS, percent of control
Excerpt: (§4) A typical experiment consisted of 4-6 groups of rats (N=5 per group) with 1 group being a control which received no MDL compound and the other groups being treated with 0.3% MDL compound. Some of the compounds were either repeated at 0.3% or evaluated again at the lower dose of 0.1%. Male Sprague-Dawley rats, 50-100 g, (Harlan Laboratories, Indianapolis, Ind.) were housed in groups of 5, fed ad libitum water and Purina Rodent chow (#5002) with or without MDL compound as a dietary admixture for 4 days. Dietary admixtures (0.3%) were made by mixing 1.2 grams of an MDL compound with 400 grams of Purina rodent chow (#5002). The MDL compound was mixed with approximately 50 grams of food using a mortar and pestle. This was added to the remainder of the food and mixed for 3 hours on a rotary mixer. In the morning of day 5, non-fasted rats were anesthetized with carbon dioxide, and blood was collected by cardiac puncture. Rats were sacrificed by cervical dislocation. Body weights and liver weights were recorded in grams. Food consumption was recorded as grams.cndot.day^-1.cndot.rat^-1. Deaths were recorded as mortality. Aliquots of fresh serum were used for clinical chemistries, thiobarbituric acid reactive substances (TBARS) and conjugated diene measurements. Aliquots of serum (~0.5mL) and whole livers were frozen at -20° C. for compound and metabolite concentration determination at a later time.
In this assay the oxidation of serum lipids is initiated with CuSO4, resulting in the formation of aldehydes, such as malondialdehyde (MDA). Upon incubation with thiobarbituric acid, the absorbance of the aldehydes can be detected at 530-540 nm. As stated in the previous example, TBARS values which are lower than control serum values indicate the relative ability of a test compound to inhibit the oxidation of lipids in a sample. TBARS were measured as follows: 100 μL of serum were mixed with 400 μL of a 5 mmol CuSO4 solution and incubated at 37° C. for 3 hr. The reactions were stopped by addition of 1.0 mL of 20% trichloroacetic acid. Then 1.0 mL of 0.67% thiobarbituric acid in 0.05N sodium hydroxide was added, mixed, and the samples incubated for 30 min at 90° C. Samples were centrifuged briefly to pellet undissolved material, and the supernatants were transferred to a 96-well microtiter plate. Absorbances were measured at 540 nm using a Biotek model EL311 microplate reader. The nmoles of MDA produced were calculated from a standard curve of 0 to 10 nmoles of MDA prepared from malonaldehyde bis(dimethylacetal). Serum samples from treated rats were compared to serum samples from control rats that received no MDL compound.

[4] = tested on: oxidation of lipids; test: Conjugated diene determination, rat serum; type: in vivo, male Sprague-Dawley rats; details: pooled rat serum, 4 days, mean of 2 determinations
Excerpt: as §4
Conjugated diene lag phase is another indicator of the oxidation of lipids. Lipids exposed to Cu^++ form conjugated dienes that absorb ultraviolet light in the range of 230 to 235 nm. The lag phase of diene formation gives an indication of the amount of oxidation of the lipids. A lag phase longer than control samples indicate inhibition of the oxidation. Conjugated diene lay phase was determined using a Varian DMS200 spectrophotometer (fitted with a constant temperature, 5 cuvette sample changer) at 30° C. Twenty (20) μL of pooled serum were added to cuvettes containing 3.0 mL phosphate buffered saline, pH 7.5, and mixed. The absorbances of all cuvettes were measured, and the instrument baseline was set to zero using the lowest absorbing sample. Next, 100 μL of 1 mmol CuSO4 were added and immediately mixed. The absorbance of each cuvette was recorded at 2 min intervals for a period of 840 min. The data were captured and transferred to a Microsoft EXCEL® spreadsheet where the curves were smoothed and differentials obtained. Lag times were determined mathematically as minutes. Serum samples were pooled (N=5); data presented are the mean values of 2 determinations. Serum samples from treated rats were compared to serum samples from control rats that received no MDL compound.

With CC(C)(C)c1cc(OC[Si](C)(C)c2ccccc2)cc(C(C)(C)C)c1OC(=O)CCC(=O)O [MDL 103,076, 2,6-Di-t-butyl-4-[(dimethylphenylsilyl)methyloxy]phenol succinic acid ester] the VCAM-1 % inh. [1] was 7.3%, the “VCAM-1 (Avg.) % inh.” value [2] was 43.9% and the “HSMC-1 % inh. of VCAM-1” value [2] was 30.6%. The “HSMC-2 % inh. of VCAM-1” value [2] was 55.0%, the “HSMC-3 % inh. of VCAM-1” value [2] was 46.0% and the response vs control in vivo at 0.3 % ([3]; Rattus norvegicus) was 107%.

For CC(C)(C)c1cc(SC[Si](C)(C)c2ccccc2)cc(C(C)(C)C)c1OC(=O)CCC(=O)O [MDL 103,141, 2,6-Di-t-butyl-4-[(dimethylphenylsilyl)methylthio]phenol sucinic acid ester], the VCAM-1 % inh. [1] was 1.3%, the “VCAM-1 (Avg.) % inh.” value [2] was 31.2% and the “HSMC-1 % inh. of VCAM-1” value [2] was 13.7%. The “HSMC-2 % inh. of VCAM-1” value [2] was 47.0%, the “HSMC-3 % inh. of VCAM-1” value [2] was 33.0% and the response vs control in vivo at 0.3 % ([3]; Rattus norvegicus) was 113%.

In the case of CC(=O)Oc1c(C(C)(C)C)cc(OC[Si](C)(C)c2ccccc2)cc1C(C)(C)C [MDL 103,377, 2,6-Di-t-butyl-4-[(dimethylphenylsilyl)methyloxy]phenol acetic acid ester], the VCAM-1 % inh. [1] was 18.3%, the “VCAM-1 (Avg.) % inh.” value [2] was 45.5% and the “HSMC-2 % inh. of VCAM-1” value [2] was 45.0%. For the same compound, the “HSMC-3 % inh. of VCAM-1” value [2] was 46.0% and the response vs control in vivo at 0.3 % ([3]; rat serum, diet 0.3%, 4 days) was 71%.

With CC(C)(C)c1cc(OC[Si](C)(C)c2ccccc2)ccc1O [MDL 103,491, 2-t-Butyl-4-[(dimethylphenylsilyl)methyloxy]phenol] the VCAM-1 % inh. [1] was 12.0%, the “VCAM-1 (Avg.) % inh.” value [2] was 53.0% and the “HSMC-2 % inh. of VCAM-1” value [2] was 57.0%. The “HSMC-3 % inh. of VCAM-1” value [2] was 49.0%, the response vs control in vivo at 0.1 % ([3]; rat serum, diet 0.1%, 4 days) was 70% and the response vs control in vivo at 0.3 % ([3]; rat serum, diet 0.3%, 4 days) was 34%. For the same compound, the “CONJ. DIENE (conjugated diene lag phase)” value ([4]; diet 0.1%) was 168 min.

For CN(C)c1ccc([Si](C)(C)COc2cc(C(C)(C)C)c(O)c(C(C)(C)C)c2)cc1 [MDL 104,556, 2,6-Di-t-butyl-4-[(4-N,N-dimethylaminophenyldimethylsilyl)methyloxy]phenol], the VCAM-1 % inh. [1] was 33.3%, the “VCAM-1 (Avg.) % inh.” value [2] was 56.7% and the “HSMC-1 % inh. of VCAM-1” value [2] was 54.1%. The “HSMC-2 % inh. of VCAM-1” value [2] was 58.0%, the “HSMC-3 % inh. of VCAM-1” value [2] was 58.0% and the response vs control in vivo at 0.1 % ([3]; rat serum, diet 0.1%, 4 days) was 61%. For the same compound, the response vs control in vivo at 0.3 % ([3]; rat serum, diet 0.3%, 4 days) was 34% and the “CONJ. DIENE (conjugated diene lag phase)” value ([4]; diet 0.1%) was 200 min.

With CC(C)(C)c1cc(OC[Si](C)(c2ccccc2)c2ccccc2)cc(C(C)(C)C)c1O [MDL 104,599, 2,6-Di-t-butyl-4-[(diphenylmethylsilyl)methloxy]phenol] the VCAM-1 % inh. [1] was 12.3%, the “VCAM-1 (Avg.) % inh.” value [2] was 45.7% and the “HSMC-1 % inh. of VCAM-1” value [2] was 50.1%. The “HSMC-2 % inh. of VCAM-1” value [2] was 38.0%, the “HSMC-3 % inh. of VCAM-1” value [2] was 49.0% and the response vs control in vivo at 0.3 % ([3]; rat serum, diet 0.3%, 4 days) was 34%.

For CC(C)(C)c1cc(OC[Si](C)(C)c2ccccc2)c(C(C)(C)C)cc1O [MDL 104,962, 2,5-Di-t-butyl-4-[(dimethylphenylsilyl)methyloxy]phenol], the response vs control in vivo at 0.3 % ([3]; rat serum, diet 0.3%, 4 days) was 25% and the “CONJ. DIENE (conjugated diene lag phase)” value ([4]; diet 0.3%) was 320 min.

In the case of Cc1cc(OC[Si](C)(C)c2ccccc2)c(C)c(C)c1O [MDL 105,314, 2,3,6-Trimethyl-4-[(dimethylphenylsdilyl)methloxy]phenol], the VCAM-1 % inh. [1] was 10.7%, the “VCAM-1 (Avg.) % inh.” value [2] was 28.2% and the “HSMC-1 % inh. of VCAM-1” value [2] was 8.7%. The “HSMC-2 % inh. of VCAM-1” value [2] was 38.0%, the “HSMC-3 % inh. of VCAM-1” value [2] was 38.0% and the response vs control in vivo at 0.3 % ([3]; Rattus norvegicus) was 85%.

In the case of CC(=O)Oc1ccc(OC[Si](C)(C)c2ccccc2)cc1C(C)(C)C [MDL 105,443, 2-t-Butyl-4-[(dimethylphenylsilyl)methyloxy]phenol acetic acid ester], the VCAM-1 % inh. [1] was 3.0%, the “VCAM-1 (Avg.) % inh.” value [2] was 25.8% and the “HSMC-1 % inh. of VCAM-1” value [2] was 11.4%. For the same compound, the “HSMC-2 % inh. of VCAM-1” value [2] was 44.0%, the “HSMC-3 % inh. of VCAM-1” value [2] was 22.0% and the response vs control in vivo at 0.1 % ([3]; rat serum, diet 0.1%, 4 days) was 78%. For the same compound, the response vs control in vivo at 0.3 % ([3]; rat serum, diet 0.3%, 4 days) was 14% and the “CONJ. DIENE (conjugated diene lag phase)” value ([4]; diet 0.1%) was 151 min.

With CC(C)(C)c1cc(OC[Si](C)(C)c2ccc(C(F)(F)F)cc2)cc(C(C)(C)C)c1O [MDL 105,975, 2,6-Di-t-butyl-4-[(dimethyl-4-trifluoromethylphenylsilyl)methyloxy]phenol] the VCAM-1 % inh. [1] was 6.3%, the “VCAM-1 (Avg.) % inh.” value [2] was 19.8% and the “HSMC-2 % inh. of VCAM-1” value [2] was 20.0%. The “HSMC-3 % inh. of VCAM-1” value [2] was 51.0%, the response vs control in vivo at 0.1 % ([3]; Rattus norvegicus) was 67% and the response vs control in vivo at 0.3 % ([3]; Rattus norvegicus) was 24%.

For COc1ccc([Si](C)(C)COc2ccc(O)c(C(C)(C)C)c2)cc1 [MDL 106,834, 2-t-Butyl-4-[(dimethyl-p-methoxylphenylsilyl)methyloxy]phenol], the response vs control in vivo at 0.3 % ([3]; rat serum, diet 0.3%, 4 days) was 31% and the “CONJ. DIENE (conjugated diene lag phase)” value ([4]; diet 0.3%) was 492 min.
